According to patent US8748614B2, “Substituted isoquinoline and isoquinolinone derivatives” (Sanofi, priority 2006, dated 2014):
pIC50: −log10 of the molar value. Where a name gives a salt, the structure may show the parent alone.

Target: T1, human recombinant ROCK II (Homo sapiens, UniProt O75116)
T1 construct: recombinant human ROCK-II residues 11-552; His6 (N); purchased Upstate Ltd., Dundee, UK
Assay: Determination of Rho Kinase Inhibition (ROCK II, Caliper peptide phosphorylation assay)
Type: biochemical
Conditions: 60 min incubation at 32° C., respective form (salt or free base) as obtained in the examples
Procedure: Determination of Rho Kinase Inhibition
To measure Rho-kinase inhibition, IC50 values were determined according to the following protocol:
Active human recombinant ROCK II (N-terminal His6-tagged recombinant human ROCK-II residues 11-552) was purchased from Upstate Ltd., Dundee, UK. The peptide substrate, Fluorescein-AKRRRLSSLRA-COOH, was obtained from JPT Peptide Technologies, Berlin, Germany. Adenosine-5′-triphosphate (ATP), bovine serum albumine (BSA), dimethylsulphoxide (DMSO), 4-(2-Hydroxyethyl)piperazine-1-ethanesulfonic acid (Hepes), Brij-35 and dithiothreitol (DTT) were purchased from Sigma-Aldrich, Munich, Germany. Tris(hydroxymethyl)-aminomethane (Tris), magnesium chloride, NaOH, 1M HCl and EDTA were obtained from Merck Biosciences, Darmstadt, Germany. “Complete” protease inhibitor was from Roche Diagnostics, Mannheim, Germany.
Test compounds were diluted to the appropriate concentrations in buffer 1 (25 mM Tris-HCl, pH 7.4, 5 mM MgCl2, 2 mM DTT, 0.02% (w/v) BSA and 3% DMSO). The ROCK II enzyme was diluted to a concentration of 100 ng/ml in buffer 2 (25 mM Tris-HCl, pH 7.4, 5 mM MgCl2, 2 mM DTT and 0.02% (w/v) BSA). The peptide substrate and ATP were diluted to concentrations of 3 μM and 120 μM, respectively, in the buffer 2. Two μl of the compound solution were mixed with 2 μl of the diluted enzyme in a 384-well small volume microtiter plate (Greiner, Bio-One, Frickenhausen, Germany), and the kinase reaction was initiated by addition of 2 μl of the solution containing peptide substrate and ATP. After 60 min incubation at 32° C., the reaction was stopped by addition of 20 μl of a solution containing 100 mM Hepes-NaOH, pH 7.4, 0.015% (v/v) Brij-35, 45 mM EDTA and 0.227% chip coating reagent 1 (Caliper Lifescience Inc, Hopkinton, Mass.). Phosphorylation of the substrate peptide was then detected on a Caliper 3000 instrument essentially as described by Pommereau et al (J. Biomol. Screening 9(5), 409-416, 2004). Separation conditions were as follows: Pressure −1.3 psi, upstream voltage −1562 V, downstream voltage −500 V, sample sip time 200 ms. Positive controls (buffer 1 instead of compound) and negative controls (buffer 1 instead of compound and buffer 2 instead of ROCK II) were run in parallel on each plate. The following products/compounds were tested in said assay by using the respective form (salt or free base) obtained as in the examples described above and the following activities were measured.

T1 sequence (O75116 11-552): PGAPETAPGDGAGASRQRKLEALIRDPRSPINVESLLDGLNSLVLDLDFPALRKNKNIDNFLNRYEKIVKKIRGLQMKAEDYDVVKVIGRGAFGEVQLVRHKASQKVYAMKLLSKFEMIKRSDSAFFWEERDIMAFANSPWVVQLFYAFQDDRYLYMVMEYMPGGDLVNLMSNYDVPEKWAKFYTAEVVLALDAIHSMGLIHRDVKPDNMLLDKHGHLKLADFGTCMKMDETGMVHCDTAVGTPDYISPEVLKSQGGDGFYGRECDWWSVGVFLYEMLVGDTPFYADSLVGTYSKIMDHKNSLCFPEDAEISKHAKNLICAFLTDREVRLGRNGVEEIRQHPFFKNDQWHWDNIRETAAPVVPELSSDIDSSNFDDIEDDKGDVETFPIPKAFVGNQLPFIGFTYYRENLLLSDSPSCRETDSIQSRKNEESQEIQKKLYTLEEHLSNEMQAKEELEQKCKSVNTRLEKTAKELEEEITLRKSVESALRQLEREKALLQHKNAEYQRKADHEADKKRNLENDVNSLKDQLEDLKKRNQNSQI

SMILES	pIC50
O=c1[nH]ccc2cc(N[C@H]3CCN(CC4CC4)C3)ccc12 [Example 226, 6-((S)-1-Cyclopropylmethyl-pyrrolidin-3-ylamino)-2H-isoquinolin-1-one]	≥ 6.00
CCCCN1CCC[C@@H](Nc2ccc3c(=O)[nH]ccc3c2)C1 [Example 196, 6-((R)-1-Butyl-piperidin-3-ylamino)-2H-isoquinolin-1-one]	≥ 6.00
O=c1[nH]ccc2cc(N[C@H]3CCN(Cc4cccc(Cl)c4F)C3)ccc12 [Example 220, 6-[(S)-1-(3-Chloro-2-fluoro-benzyl)-pyrrolidin-3-ylamino]-2H-isoquinolin-1-one]	≥ 6.00
O=c1[nH]ccc2cc(N[C@@H]3CCCN(Cc4ccncc4)C3)ccc12 [Example 213, 6-((R)-1-Pyridin-4-ylmethyl-piperidin-3-ylamino)-2H-isoquinolin-1-one]	5.00 to 6.00
c1cc2cc(N[C@@H]3CCCN(CC4CC4)C3)ccc2cn1 [Example 166, ((R)-1-Cyclopropylmethyl-piperidin-3-yl)-isoquinolin-6-yl-amine]	5.00 to 6.00
O=c1[nH]ccc2cc(N[C@@H]3CCCN(Cc4ccccc4)C3)ccc12 [Example 207, 6-((R)-1-Benzyl-piperidin-3-ylamino)-2H-isoquinolin-1-one]	≥ 6.00
c1cc2cc(N[C@@H]3CCCN(CC4CCCCC4)C3)ccc2cn1 [Example 169, ((R)-1-Cyclohexylmethyl-piperidin-3-yl)-isoquinolin-6-yl-amine]	5.00 to 6.00
CC(C)CCN1CCC[C@@H](Nc2ccc3c(=O)[nH]ccc3c2)C1 [Example 199, 6-[(R)-1-(3-Methyl-butyl)-piperidin-3-ylamino]-2H-isoquinolin-1-one]	≥ 6.00
CCCN1CCC[C@@H](Nc2ccc3c(=O)[nH]ccc3c2)C1 [Example 195, 6-((R)-1-Propyl-piperidin-3-ylamino)-2H-isoquinolin-1-one]	5.00 to 6.00
CN(c1ccc2cnccc2c1)C1CCN(CCC(F)(F)F)CC1 [Example 99, Isoquinolin-6-yl-methyl-[1-(3,3,3-trifluoro-propyl)-piperidin-4-yl]-amine]	5.00 to 6.00
O=c1[nH]ccc2cc(N[C@@H]3CCCN(Cc4ccccn4)C3)ccc12 [Example 215, 6-((R)-1-Pyridin-2-ylmethyl-piperidin-3-ylamino)-2H-isoquinolin-1-one]	5.00 to 6.00
O=c1[nH]ccc2cc(N[C@@H]3CCCN(Cc4ccc5ccccc5c4)C3)ccc12 [Example 218, 6-((R)-1-Naphthalen-2-ylmethyl-piperidin-3-ylamino)-2H-isoquinolin-1-one]	≥ 6.00

The remaining lines, values ahead:

pIC50	SMILES
≥ 6.00	O=c1[nH]ccc2cc(SC3CCNCC3)c(Cl)cc12 [Example 286, 7-Chloro-6-(piperidin-4-ylsulfanyl)-2H-isoquinolin-1-one hydrochloride]
≥ 6.00	Brc1cc2cnccc2cc1SC1CCCNCC1 (racemic) [Example 271, (Rac)-6-(Azepan-4-ylsulfanyl)-7-bromo-isoquinoline hydrochloride]
≥ 6.00	O=c1[nH]ccc2cc(S(=O)(=O)C3CCNCC3)c(Cl)cc12 [Example 288, 7-Chloro-6-(piperidine-4-sulfonyl)-2H-isoquinolin-1-one hydrochloride]
5.00 to 6.00	O=c1[nH]ccc2cc(N[C@H]3CCN(Cc4cc(Cl)cc(Cl)c4)C3)ccc12 [Example 234, 6-[(S)-1-(3,5-Dichloro-benzyl)-pyrrolidin-3-ylamino]-2H-isoquinolin-1-one]
5.00 to 6.00	O=c1[nH]ccc2cc(NC3CN(CC4CC4)C3)ccc12 [Example 253, 6-(1-Cyclopropylmethyl-azetidin-3-ylamino)-2H-isoquinolin-1-one]
≥ 6.00	O=c1[nH]ccc2cc(N[C@H]3CCN(Cc4ccc5ccccc5c4)C3)ccc12 [Example 243, 6-((S)-1-Naphthalen-2-ylmethyl-pyrrolidin-3-ylamino)-2H-isoquinolin-1-one]
≥ 6.00	Clc1cc2cnccc2cc1SC1CCCNC1 (racemic) [Example 269, (Rac)-7-Chloro-6-(piperidin-3-ylsulfanyl)-isoquinoline hydrochloride]
5.00 to 6.00	Cn1cc(CN2CC[C@H](Nc3ccc4c(=O)[nH]ccc4c3)C2)cn1 [Example 246, 6-[(S)-1-(1-Methyl-1H-pyrazol-4-ylmethyl)-pyrrolidin-3-ylamino]-2H-isoquinolin-1-one]
≥ 6.00	O=c1[nH]ccc2cc(NC3CN(Cc4cccc(Cl)c4F)C3)ccc12 [Example 249, 6-[1-(3-Chloro-2-fluoro-benzyl)-azetidin-3-ylamino]-2H-isoquinolin-1-one]
5.00 to 6.00	CC(C)N1CC(Nc2ccc3c(=O)[nH]ccc3c2)C1 [Example 251, 6-(1-Isopropyl-azetidin-3-ylamino)-2H-isoquinolin-1-one]
5.00 to 6.00	Clc1cc2cnccc2cc1SCC1CCNCC1 [Example 279, 7-Chloro-6-(piperidin-4-ylmethylsulfanyl)-isoquinoline hydrochloride]
≥ 6.00	CCCc1cc2cnccc2cc1SC1CCNCC1 [Example 277, 6-(Piperidin-4-ylsulfanyl)-7-propyl-isoquinoline hydrochloride]
5.00 to 6.00	O=c1[nH]ccc2cc(N[C@H]3CCN(CC4CCCNC4)C3)ccc12 (stereo partly drawn) [Example 248, 6-((S)-1-Piperidin-3-ylmethyl-pyrrolidin-3-ylamino)-2H-isoquinolin-1-one]
≥ 6.00	Cc1ccc(CN2CC[C@H](Nc3ccc4c(=O)[nH]ccc4c3)C2)cc1 [Example 236, 6-[(S)-1-(4-Methyl-benzyl)-pyrrolidin-3-ylamino]-2H-isoquinolin-1-one]
5.00 to 6.00	O=c1[nH]ccc2cc([S+]([O-])C3CCNCC3)c(Cl)cc12 (stereo not shown) [Example 290, 7-Chloro-6-(piperidine-4-sulfinyl)-2H-isoquinolin-1-one hydrochloride]
≥ 6.00	O=c1[nH]ccc2cc(NC3CN(Cc4ccccc4Cl)C3)ccc12 [Example 259, 6-[1-(2-Chloro-benzyl)-azetidin-3-ylamino]-2H-isoquinolin-1-one]
